Each structure is given as a SMILES string. ≈ marks a conversion by molar mass, not a printed value. Numbered stars: 1 amine (or outer) side, 2 acyl side, 3 side chain; on linkers, the order of the positions; unused ones are H or OH. Bridge positions count the residues as written; N and C are the ends. Square brackets hold non-standard residues; d marks the D form. Peptide text beside a SMILES is read from it. NMehTyr = CN[C@@H](CCc1ccc(O)cc1)C(=O)O; hTyr = N[C@@H](CCc1ccc(O)cc1)C(=O)O; NMeA = CN[C@@H](C)C(=O)O; CO = O=C([*:1])[*:2]

Assay [1] concerns the target Carboxypeptidase A1 (Bos taurus) (UniProt P00730). The experiment in a line: Ability to inhibit Carboxypeptidase A from bovine pancreas at a concentration of 50 ug/mL; No Activity.
For assay [2] the target is unchanged. The experiment in a line: Ability to inhibit Carboxypeptidase A from bovine pancreas.

For the molecule `COc1ccc(CC[C@@H]2NC(=O)[C@H](C(C)C)NC(=O)[C@H](NC(=O)N[C@@H](CCCN=C(N)N)C(=O)O)CCCCNC(=O)[C@H](Cc3ccccc3)NC(=O)[C@H](C)N(C)C2=O)cc1`, the IC50 entry in assay [1] is given as “Not Active”. Molecule `CC[C@H](C)[C@@H]1NC(=O)[C@H](NC(=O)NC(Cc2ccc(O)cc2)C(=O)O)CCCCNC(=O)[C@H]([C@@H](C)CC)NC(=O)[C@H](CCc2ccc(O)cc2)N(C)C(=O)[C@H](CCc2ccc(O)cc2)NC1=O` (stereo partly specified) gave an IC50 in assay [2] of 0.0018 µg/mL (≈ 0.00194 µM). Consider `CC(C)[C@@H]1NC(=O)[C@H](NC(=O)N[C@@H](CCCNC(=N)N)C(=O)O)CCCCNC(=O)[C@H](Cc2ccccc2)NC(=O)[C@H](C)N(C)C(=O)[C@H](CCc2ccc(O)cc2)NC1=O` [ANABAENOPEPTIN B] ({Arg-CO}-[dK]V[hTyr][NMeA]F; lactam 1-C), for which the IC50 result in assay [1] is given as “Not Active”. Same read-out and setting: the value for `CC[C@H](C)[C@@H]1NC(=O)[C@H](NC(=O)N[C@@H](CCCNC(=N)N)C(=O)O)CCCCNC(=O)[C@H](Cc2ccccc2)NC(=O)[C@H](C)N(C)C(=O)[C@H](CCc2ccc(O)cc2)NC1=O` [ANABAENOPEPTIN F] ({Arg-CO}-[dK]I[hTyr][NMeA]F; lactam 1-C) was “Not Active”. With `CC[C@H](C)[C@@H]1NC(=O)[C@H](NC(=O)N[C@@H](CCCNC(=N)N)C(=O)O)CCCCNC(=O)[C@H]([C@@H](C)CC)NC(=O)[C@H](CCc2ccc(O)cc2)N(C)C(=O)[C@H](CCc2ccc(O)cc2)NC1=O` [ANABAENOPEPTIN H] ({Arg-CO}-[dK]I[hTyr][NMehTyr]I; lactam 1-C), in assay [2], the IC50 came out at 3.4 µg/mL (≈ 3.68 µM).

`CC[C@H](C)[C@H](NC(=O)N[C@@H]1CCCCNC(=O)[C@H]([C@@H](C)CC)NC(=O)[C@H](CCc2ccc(O)cc2)N(C)C(=O)[C@H](CCc2ccc(O)cc2)NC(=O)[C@H](C(C)C)NC1=O)C(=O)O` [ANABAENOPEPTIN T] had an IC50 in assay [2] of 2 µg/mL (≈ 2.31 µM).

Source of the values: ChEMBL document CHEMBL1132037, “Anabaenopeptins G and H, potent carboxypeptidase A inhibitors from the cyanobacterium Oscillatoria agardhii (NIES-595)” (Bioorg Med Chem Lett, 1999).
